One assay relates to sheep. Put plainly: Tracheal mucus velocity (TMV) in sheep after CFTR inhibition. Type of assay: in vivo. The settings on record: nebulization, over a period of 2-3 hours. Here is the method:
Modeling mucociliary clearance. To model mucociliary clearance, sheep 40-50 kg were intubated and the velocity of mucociliary clearance in the trachea was measured by insufflation of radio-opaque Teflon discs were placed into the sheep trachea so that they become embedded in the mucus in the trachea. The movement of multiple discs over several minutes was determined using fluoroscopy and the tracheal mucus velocity (TMV) is calculated as the average that the discs travel per minute. After establishing a baseline TMV, a potent long-lasting inhibitor of CFTR (INH-172) was delivered by nebulization with TMV measurements performed every hour, and over a period of 2-3 hours the TMV declines by approximately 50% in a manner like CF where the inability to secrete Cl^− and NaHCO3 results in dehydration of the airways and slowing of mucociliary clearance.
Once the stable inhibition of TMV has been established, typically at hour 4, the test compound was delivered by nebulization and TMV measured for an additional 8 hours. Inhibitors of ENaC like amiloride (as described in Scott, David W., et al., American Journal of Respiratory and Critical Care Medicine 196.6 (2017): 734-744, incorporated herein in its entirety) and P1037/VX371 show rescue of TMV that is of limited duration with an effect that only lasts for 2-3 hours, due to systemic clearance.

For assay [1], the system named is test epithelia (MucilAir™). Put plainly: Cilia beating frequency (CBF) and % active area. Type of assay: cell-based, human. The settings on record: positive control, 100 μM in basolateral compartment for 2 hours. Here is the method:
In the studies described herein, test epithelia (MucilAir™, Epithelix) are reconstituted from cells isolated from a healthy bronchial donor. The formulation is exposed apically to mimic deposition on the nasal mucosa via inhalation. In the studies described herein, positive controls depend on experiment. For example: Isoproterenol 100 μM in culture medium; CBF activator applied in basolateral compartment ([…]) for 2 hours (CBF positive control); Isoproterenol 100 μM in culture medium (MCC positive control); […] Timeline of Epithelia Experiments. At time point 0, epithelia are treated with the test formulation or control using an apical mode of administration. Test formulations or control were exposed at a quantity of 10 μL, at the concentrations in Table 1. […] In some embodiments, CBF is analyzed with Sisson-Ammons Video Analysis (SAVA) software (Sisson et al., Journal of microscopy 211.2 (2003): 103-111) using an inverted phase contrast microscope (Zeiss®, Germany). In some embodiments, CBF is analyzed with Epithelix software (Cilia-X). […] In some embodiments, two videos are recorded per well at 120 frames per second with a total of 512 frames per video. In other embodiments, the CBF is expressed as Hz 256, wherein movies are captured at a high frequency rate of 125 frames per second. […]

As to `O=C(O)c1ccc(C=C2SC(=S)N(c3cccc(C(F)(F)F)c3)C2=O)cc1` [INH-172], in the assay with sheep, the “Decline of TMV from baseline” value is “approximately 50%”. As for `CC(C)NCC(O)c1ccc(O)c(O)c1` (centres unmarked) [positive control of cilia beating, Isoproterenol], the Cilia beating frequency result in assay [1] is “highest cilia beating frequency”.

The values are drawn from patent US20250108068A1, “COMPOSITIONS AND METHODS FOR ALLEVIATING PULMONARY AILMENTS” (Color Ventures LLC, priority 2023, published 2025).
